Source: ChEMBL document CHEMBL1201861, “Genomics of Drug Sensitity in Cancer screening data, Wellcome Trust Sanger Institute”

Each compound was assayed on NCI-H1648 (assay: cells). Details: Homo sapiens, NCI-H1648.
Type: functional, cell-based, Homo sapiens
Description: SANGER: Inhibition of human NCI-H1648 cell growth in a cell viability assay.

SMILES | IC50
Nc1cccc2c1CN(C1CCC(=O)NC1=O)C2=O (centres undefined) [LENALIDOMIDE] | > 5 µM

What follows are compounds tested on NCI-H510A (assay: cells). Details: Homo sapiens, NCI-H510A.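 Note: growth inhibition of NCI-H510A cells, read out with a cell viability assay.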
Type: functional, cell-based, Homo sapiens
Description: SANGER: Inhibition of human NCI-H510A cell growth in a cell viability assay.

SMILES | IC50
Nc1cccc2c1CN(C1CCC(=O)NC1=O)C2=O (centres undefined) [LENALIDOMIDE] | > 5 µM

What follows are compounds tested on SNU1 (assay: cells). Details: Homo sapiens, SNU1.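 Note: growth inhibition of human NCI-SNU-1 cells, measured with a cell viability assay.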
Type: functional, cell-based, Homo sapiens
Description: SANGER: Inhibition of human NCI-SNU-1 cell growth in a cell viability assay.

SMILES | IC50
Nc1cccc2c1CN(C1CCC(=O)NC1=O)C2=O (centres undefined) [LENALIDOMIDE] | > 5 µM

What follows are compounds tested on NKM-1 (assay: cells). Details: Homo sapiens, NKM-1.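 Note: growth inhibition of NKM-1 cells, read out with a cell viability assay.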
Type: functional, cell-based, Homo sapiens
Description: SANGER: Inhibition of human NKM-1 cell growth in a cell viability assay.

SMILES | IC50
Nc1cccc2c1CN(C1CCC(=O)NC1=O)C2=O (centres undefined) [LENALIDOMIDE] | > 5 µM

The compounds below were run on ONS-76 (assay: cells). Details: Homo sapiens, ONS-76.
Type: functional, cell-based, Homo sapiens
Description: SANGER: Inhibition of human ONS-76 cell growth in a cell viability assay.

SMILES | IC50
Nc1cccc2c1CN(C1CCC(=O)NC1=O)C2=O (centres undefined) [LENALIDOMIDE] | > 5 µM

These compounds were tested on RPMI-8866 (assay: cells). Details: Homo sapiens, RPMI-8866.
Type: functional, cell-based, Homo sapiens
Description: SANGER: Inhibition of human RPMI-8866 cell growth in a cell viability assay.

SMILES | IC50
Nc1cccc2c1CN(C1CCC(=O)NC1=O)C2=O (centres undefined) [LENALIDOMIDE] | > 5 µM

Each compound was assayed on SCC-15 (assay: cells). Details: Homo sapiens, SCC-15.
Type: functional, cell-based, Homo sapiens
Description: SANGER: Inhibition of human SCC-15 cell growth in a cell viability assay.

SMILES | IC50
Nc1cccc2c1CN(C1CCC(=O)NC1=O)C2=O (centres undefined) [LENALIDOMIDE] | > 5 µM

Each compound was assayed on SF-126 (assay: cells). Details: Homo sapiens, SF-126.
Type: functional, cell-based, Homo sapiens
Description: SANGER: Inhibition of human SF126 cell growth in a cell viability assay.

SMILES | IC50
Nc1cccc2c1CN(C1CCC(=O)NC1=O)C2=O (centres undefined) [LENALIDOMIDE] | > 5 µM

Each compound was assayed on SK-UT-1 (assay: cells). Details: Homo sapiens, SK-UT-1.
Type: functional, cell-based, Homo sapiens
Description: SANGER: Inhibition of human SK-UT-1 cell growth in a cell viability assay.

SMILES | IC50
Nc1cccc2c1CN(C1CCC(=O)NC1=O)C2=O (centres undefined) [LENALIDOMIDE] | > 5 µM

What follows are compounds tested on SNB-75 (assay: cells). Details: Homo sapiens, SNB-75.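 Note: cell viability assay measuring growth inhibition of human SNB-75 cells.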
Type: functional, cell-based, Homo sapiens
Description: SANGER: Inhibition of human SNB75 cell growth in a cell viability assay.

SMILES | IC50
Nc1cccc2c1CN(C1CCC(=O)NC1=O)C2=O (centres undefined) [LENALIDOMIDE] | > 5 µM

The compounds below were run on SW872 (assay: cells). Details: Homo sapiens, SW872.
Type: functional, cell-based, Homo sapiens
Description: SANGER: Inhibition of human SW872 cell growth in a cell viability assay.

SMILES | IC50
Nc1cccc2c1CN(C1CCC(=O)NC1=O)C2=O (centres undefined) [LENALIDOMIDE] | > 5 µM

These compounds were tested on SW982 (assay: cells). Details: Homo sapiens, SW982.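 Note: growth inhibition of SW982 cells, read out with a cell viability assay.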
Type: functional, cell-based, Homo sapiens
Description: SANGER: Inhibition of human SW982 cell growth in a cell viability assay.

SMILES | IC50
Nc1cccc2c1CN(C1CCC(=O)NC1=O)C2=O (centres undefined) [LENALIDOMIDE] | > 5 µM

What follows are compounds tested on 697 (assay: cells). Details: Homo sapiens.
Type: functional, cell-based, Homo sapiens
Description: SANGER: Inhibition of human 697 cell growth in a cell viability assay.

SMILES | IC50
Nc1cccc2c1CN(C1CCC(=O)NC1=O)C2=O (centres undefined) [LENALIDOMIDE] | > 5 µM

The compounds below were run on BB49-HNC (assay: cells). Details: Homo sapiens, BB49-HNC.
Type: functional, cell-based, Homo sapiens
Description: SANGER: Inhibition of human BB49-HNC cell growth in a cell viability assay.

SMILES | IC50
Nc1cccc2c1CN(C1CCC(=O)NC1=O)C2=O (centres undefined) [LENALIDOMIDE] | > 5 µM

What follows are compounds tested on TE-12 (assay: cells). Details: Homo sapiens, TE-12.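 Note: growth inhibition of TE-12 cells, read out by a cell viability assay.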
Type: functional, cell-based, Homo sapiens
Description: SANGER: Inhibition of human TE-12 cell growth in a cell viability assay.

SMILES | IC50
Nc1cccc2c1CN(C1CCC(=O)NC1=O)C2=O (centres undefined) [LENALIDOMIDE] | > 5 µM

Each compound was assayed on TE-8 (assay: cells). Details: Homo sapiens, TE-8.
Type: functional, cell-based, Homo sapiens
Description: SANGER: Inhibition of human TE-8 cell growth in a cell viability assay.

SMILES | IC50
Nc1cccc2c1CN(C1CCC(=O)NC1=O)C2=O (centres undefined) [LENALIDOMIDE] | > 5 µM

The compounds below were run on TGBC1TKB (assay: cells). Details: Homo sapiens, TGBC1TKB.
Type: functional, cell-based, Homo sapiens
Description: SANGER: Inhibition of human TGBC1TKB cell growth in a cell viability assay.

SMILES | IC50
Nc1cccc2c1CN(C1CCC(=O)NC1=O)C2=O (centres undefined) [LENALIDOMIDE] | > 5 µM

The compounds below were run on TGBC24TKB (assay: cells). Details: Homo sapiens, TGBC24TKB.
Type: functional, cell-based, Homo sapiens
Description: SANGER: Inhibition of human TGBC24TKB cell growth in a cell viability assay.

SMILES | IC50
Nc1cccc2c1CN(C1CCC(=O)NC1=O)C2=O (centres undefined) [LENALIDOMIDE] | > 5 µM

Each compound was assayed on U-266 (assay: cells). Details: Homo sapiens, U-266.
Type: functional, cell-based, Homo sapiens
Description: SANGER: Inhibition of human U-266 cell growth in a cell viability assay.

SMILES | IC50
Nc1cccc2c1CN(C1CCC(=O)NC1=O)C2=O (centres undefined) [LENALIDOMIDE] | > 5 µM

The compounds below were run on VA-ES-BJ (assay: cells). Details: Homo sapiens, VA-ES-BJ.
Type: functional, cell-based, Homo sapiens
Description: SANGER: Inhibition of human VA-ES-BJ cell growth in a cell viability assay.

SMILES | IC50
Nc1cccc2c1CN(C1CCC(=O)NC1=O)C2=O (centres undefined) [LENALIDOMIDE] | > 5 µM

The compounds below were run on no-11 (assay: cells). Details: Homo sapiens.
Type: functional, cell-based, Homo sapiens
Description: SANGER: Inhibition of human no-11 cell growth in a cell viability assay.

SMILES | IC50
Nc1cccc2c1CN(C1CCC(=O)NC1=O)C2=O (centres undefined) [LENALIDOMIDE] | > 5 µM

These compounds were tested on CCRF-CEM (assay: cells). Details: Homo sapiens, CCRF-CEM.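 Note: inhibition of CCRF-CEM cell growth, measured by a cell viability assay.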
Type: functional, cell-based, Homo sapiens
Description: SANGER: Inhibition of human CCRF-CEM cell growth in a cell viability assay.

SMILES | IC50
Nc1cccc2c1CN(C1CCC(=O)NC1=O)C2=O (centres undefined) [LENALIDOMIDE] | > 5 µM

The compounds below were run on COLO-668 (assay: cells). Details: Homo sapiens, COLO-668.
Type: functional, cell-based, Homo sapiens
Description: SANGER: Inhibition of human COLO-668 cell growth in a cell viability assay.

SMILES | IC50
Nc1cccc2c1CN(C1CCC(=O)NC1=O)C2=O (centres undefined) [LENALIDOMIDE] | > 5 µM

Each compound was assayed on COLO-684 (assay: cells). Details: Homo sapiens, COLO-684.
Type: functional, cell-based, Homo sapiens
Description: SANGER: Inhibition of human COLO-684 cell growth in a cell viability assay.

SMILES | IC50
Nc1cccc2c1CN(C1CCC(=O)NC1=O)C2=O (centres undefined) [LENALIDOMIDE] | > 5 µM
